# Measured values: ChEMBL document CHEMBL1201862, “PubChem BioAssay data set” (2004)
#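 Following 48 hours of exposure in 96-well plates, responses at five concentrations were used to interpolate endpoints linearly. The concentration for 50% growth inhibition is given as GI50.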 The source made the active and inactive calls. No stated cut-off is given here; in the data, active = GI50 up to about 1.1 µM and inactive = higher.
# Experiments:
# Experiment in all cases: growth of human tumour cells (NCI), 48 h
# 786-0 = tested on: 786-0
# BT-549 = tested on: BT-549
# DU-145 = tested on: DU-145
# HCT-116 = tested on: HCT-116
# HCT-15 = tested on: HCT-15
# HL-60 = tested on: HL-60
# HOP-92 = tested on: HOP-92
# LOX IMVI = tested on: LOX IMVI
# MCF7 = tested on: MCF7
# MDA-N = tested on: MDA-N
# MOLT-4 = tested on: MOLT-4
# NCI-H522 = tested on: NCI-H522
# OVCAR-3 = tested on: OVCAR-3
# OVCAR-5 = tested on: OVCAR-5
# SF-295 = tested on: SF-295
# SK-OV-3 = tested on: SK-OV-3
# SNB-75 = tested on: SNB-75
# UACC-62 = tested on: UACC-62
# UO-31 = tested on: UO-31
# Malme-3M = tested on: Malme-3M
Compound,GI50 (786-0),GI50 (BT-549),GI50 (DU-145),GI50 (HCT-116),GI50 (HCT-15) [µM],GI50 (HL-60),GI50 (HOP-92),GI50 (LOX IMVI),GI50 (MCF7),GI50 (MDA-N),GI50 (MOLT-4),GI50 (NCI-H522),GI50 (OVCAR-3),GI50 (OVCAR-5),GI50 (SF-295),GI50 (SK-OV-3),GI50 (SNB-75),GI50 (UACC-62),GI50 (UO-31),GI50 (Malme-3M)
O=C(Oc1c(Cl)cc(C2(c3cc(Cl)c(OC(=O)c4ccccc4)c(Cl)c3)CCCCC2)cc1Cl)c1ccccc1,14.1 µM (inactive),14.7 µM (inactive),12.2 µM (inactive),13.2 µM (inactive),11.9,3.32 µM (inactive),8.45 µM (inactive),14.2 µM (inactive),11.1 µM (inactive),12.7 µM (inactive),5 µM (inactive),13.7 µM (inactive),10.9 µM (inactive),14 µM (inactive),13.4 µM (inactive),15.5 µM (inactive),11.7 µM (inactive),10.5 µM (inactive),18.5 µM (inactive),
OCC1OC(Oc2cc(O)cc(/C=C\c3ccc(O)cc3)c2)C(O)C(O)C1O (stereo not given),> 100 µM (inactive),> 100 µM (inactive),> 100 µM (inactive),> 100 µM (inactive),> 100,> 100 µM (inactive),> 100 µM (inactive),> 100 µM (inactive),> 100 µM (inactive),> 100 µM (inactive),> 100 µM (inactive),> 100 µM (inactive),> 100 µM (inactive),> 100 µM (inactive),> 100 µM (inactive),> 100 µM (inactive),> 100 µM (inactive),> 100 µM (inactive),> 100 µM (inactive),
CCN(CC)CC(O)c1ccc2ccc3ccccc3c2c1 (stereo not given),12.9 µM (inactive),15.8 µM (inactive),19 µM (inactive),15.3 µM (inactive),16.3,14.1 µM (inactive),14.2 µM (inactive),17.9 µM (inactive),14.8 µM (inactive),15.6 µM (inactive),16.4 µM (inactive),15.6 µM (inactive),15.7 µM (inactive),13.6 µM (inactive),15.2 µM (inactive),16 µM (inactive),19.1 µM (inactive),15.3 µM (inactive),11.2 µM (inactive),16.9 µM (inactive)
CC(=O)c1nc2ccccc2n1C(C)C(=O)c1ccccc1 (stereo not given),36.9 µM (inactive),52 µM (inactive),64.9 µM (inactive),50.4 µM (inactive),81.5,29.6 µM (inactive),69.3 µM (inactive),34.3 µM (inactive),22.2 µM (inactive),54.1 µM (inactive),34.9 µM (inactive),15.5 µM (inactive),41.8 µM (inactive),,54.6 µM (inactive),69 µM (inactive),> 100 µM (inactive),33 µM (inactive),50.7 µM (inactive),50.2 µM (inactive)
N=C(N)NS(=O)(=O)c1ccc(Nc2c3ccccc3nc3c(C(=O)NC(CO)(CO)CO)cccc23)cc1,15.7 µM (inactive),13.4 µM (inactive),32.4 µM (inactive),,93.8,18.9 µM (inactive),14.4 µM (inactive),18.7 µM (inactive),3.44 µM (inactive),35.6 µM (inactive),2.79 µM (inactive),11.7 µM (inactive),27.5 µM (inactive),11.9 µM (inactive),16.6 µM (inactive),22 µM (inactive),2.3 µM (inactive),19.5 µM (inactive),27.5 µM (inactive),19.4 µM (inactive)
Cn1c2ccc3cc2c(=S)c2cc(ccc21)OCCOCCOCCOCCOCCO3,> 10 µM (inactive),> 10 µM (inactive),> 10 µM (inactive),> 10 µM (inactive),> 10,> 10 µM (inactive),> 10 µM (inactive),> 10 µM (inactive),> 10 µM (inactive),> 10 µM (inactive),> 10 µM (inactive),> 10 µM (inactive),> 10 µM (inactive),> 10 µM (inactive),> 10 µM (inactive),> 10 µM (inactive),> 10 µM (inactive),> 10 µM (inactive),,> 10 µM (inactive)
